Source: patent US8933035B2, “Transglutaminase-activating peptide and cosmetic or pharmaceutical composition containing same” (ISP Investments Inc., priority 2009, dated 2015)

Assays:
human fibroblasts = assay: Ibidi in vitro healing model of fibroblast regeneration; assay type: cell-based; details: 0.5 ppm and 1.5 ppm
Procedure: The Ibidi in vitro healing model was used (Biovalley, Marne la Vallée, France). Human fibroblasts were sown in two separate compartments of an Ibidi insert, which was then placed in a culture dish. On confluence, the insert was removed, thus creating an acellular zone measuring 400 μm wide between the two cellular lawns. The peptide diluted to 1% and 3% from a mother solution containing 50 ppm of peptide SEQ ID NO: 5 was then added to the culture medium, and the treatment was carried out for 48 hours with renewal of the active ingredient every 24 hours. Inspection by phase contrast microscopy (Olympus CK40 microscope, ×5, connected to an Olympus E-510 camera) was carried out at different times (0 to 48 hours) during the migration process.

TG2 [1] = assay: immunofluorescence labelling of TG2 in cultured normal human keratinocytes; assay type: cell-based; details: 0.5 ppm, 24 hours
Procedure: (§1) The objective of this study was to determine the influence of peptide SEQ ID NO: 5 on the expression of the different transglutaminases expressed in the human skin. To this end, a culture of normal human keratinocytes (NHKs) and a skin biopsy were subjected to specific labellings by immunofluorescence. Cultures of normal human fibroblasts were also labelled by immunofluorescence, specifically for TG2, which is expressed in these types of cell. Cultured NHKs were treated with a 1% solution of a mother solution containing 50 ppm of peptide SEQ ID NO: 5 for 24 hours. For immunolabelling by the anti-TG1 antibody, the cells were washed and fixed with 3.7% paraformaldehyde for 10 minutes. The cells were then incubated in the presence of a specific anti-TG1 antibody (Clinisciences BT-621, mouse monoclonal), then in the presence of a suitable secondary antibody coupled to a fluorescent marker. For the other immunolabellings, the cells were washed and fixed with cold methanol for 1 minute. The cells were then incubated in the presence of a specific antibody; anti-TG2 (ABCAM® ab2972 antibody, rabbit polyclonal), anti-TG3 (ABCAM® ab53236 antibody, mouse monoclonal) or anti-TG5 (ABCAM® ab26992 antibody, rabbit polyclonal). After mounting in a medium ad hoc, the slides were observed under epifluorescence microscope (ECLIPSE® E 80i microscope by Nikon Corporation).

TG3 [2] = assay: immunolabelling of TG3 in ex vivo human skin biopsies; assay type: cell-based; details: cultivated ex vivo skin biopsies, 0.5 ppm topically, 24 hours
Procedure: Biopsies of human skin were placed in culture at the air/liquid interface. A 1% solution of a mother solution containing 50 ppm of peptide SEQ ID NO: 5 was applied topically over 24 hours.
For the labellings of TG3, the skin biopsies were enclosed in paraffin and histological sections 3 μm thick were made. The slides were deparaffined, hydrated, then immunolabelled by an antibody directed against TG3 (ABCAM® ab53236 antibody, mouse monoclonal), then by a suitable secondary antibody coupled to a fluorescent marker. The skin sections were then examined under epifluorescence microscope (ECLIPSE® E 80i microscope by Nikon Corporation).

involucrin [3] = assay: immunoblot of involucrin in cultured NHKs; assay type: cell-based, human; details: 1% of 50 ppm mother solution, 24 hours
Procedure: (§2) Cultured NHKs were treated with a 1% solution of a mother solution containing 50 ppm of peptide SEQ ID NO: 5 for 24 hours. The cells were then rinsed and detached from the support by scraping in a RIPA buffer in the presence of a cocktail of protease inhibitors (Thermo Scientific, Rockford, USA). The lysed cells were centrifuged at 4° C. at 10,000 rpm for 20 minutes and the supernatants were collected. The samples were then standardised by assaying of the proteins by BCA kit (Pierce, France). The samples were mixed, then subjected to electrophoresis on NUPAGE® 3-8% tris-acetate gel in a NuPAGE NUPAGE® tris-acetate migration buffer, then blotted on a membrane of nitrocellulose by means of a blotting device (Invitrogen, Paisley, UK). The membranes were saturated in 5 TBS milk for 2 hours at ambient temperature, then incubated at 4° C. overnight with a primary antibody directed against TG1 (Clinisciences BT-621, monoclonal mouse) or against involucrin (NOVOCASTRA®NCL-INV antibody, clone SY5, mouse monoclonal) or against loricrin (ABCAM® ab24722 antibody, rabbit polyclonal). After washing by 0.05% TBS-Tween buffer, the membrane was incubated with a suitable secondary antibody coupled to peroxidase. The blots were then developed by means of a chemiluminescent substrate (SuperSignal West Dura Extended Duration Substrate, Pierce, Brebiere, France).

loricrin [4] = assay: immunoblot of loricrin in cultured NHKs; assay type: cell-based, human; details: 1% of 50 ppm mother solution, 24 hours
Procedure: as §2

TG3 [5] = assay: immunofluorescence labelling of TG3 in cultured normal human keratinocytes; assay type: cell-based; details: 0.5 ppm, 24 hours
Procedure: as §1

TG1 [6] = assay: immunofluorescence labelling of TG1 in cultured normal human keratinocytes; assay type: cell-based; details: 0.5 ppm, 24 hours
Procedure: as §1

TG2 [7] = assay: immunolabelling of TG2 in ex vivo human skin biopsies; assay type: cell-based; details: cultivated ex vivo skin biopsies, 0.5 ppm topically, 24 hours
Procedure: (§3) Biopsies of human skin were placed in culture at the air/liquid interface. A 1% solution of a mother solution containing 50 ppm of peptide SEQ ID NO: 5 was applied topically over 24 hours. For the labellings of TG1 and TG2, the skin biopsies were then enclosed in resin and frozen in nitrogen. Sections of approximately 6 μm were then made by cryostat. Immunolabelling was carried out by means of a specific antibody; anti-TG1 (Clinisciences BT-621, mouse monoclonal) or anti-TG2 (ABCAM® ab2972 antibody, rabbit polyclonal), then by means of a suitable secondary antibody coupled to a fluorescent marker. The skin sections were then examined under epifluorescence microscope (ECLIPSE® E 80i microscope by Nikon Corporation).

transglutaminases = assay: total enzyme activity of transglutaminases in normal human keratinocytes (fluorescein-labelled cadaverine substrate); assay type: cell-based; details: NHKs, 0.5 ppm
Procedure: The objective of this study was to determine the influence of peptide SEQ ID NO: 5 on the total activity of transglutaminases in normal human keratinocytes (NHKs). To this end, the total enzyme activity of transglutaminases was assayed by spectrophotometry by means of an amino acid donor substrate, the amino acids being labelled with fluorescein.
NHKs were placed in black 96-well plates. After four days of culture, the NHKs were treated with a 1% solution of a mother solution containing 50 ppm of peptide SEQ ID NO: 5 for 24 or 48 hours (the active ingredient was added every 24 hours). A positive control was created by treating the cells with EGCG (epigallocatechin gallate, the main polyphenol ingredient in green tea) at a concentration of 20 μg/ml. The substrate used was cadaverine labelled with fluorescein (Invitrogen A10466) diluted to 100 μM in the culture medium. […] After two rinses in ethanol, then three rinses in the HBSS buffer, 100 μl of PBS were added to each well and a reading was taken by spectrophotometer at excitation wavelengths of 485 nm and emission wavelengths of 530 nm. Under these conditions, the transglutaminase activity was proportional to the amount of fluorescence emitted (expressed in fluorescence units), based on the total amount of proteins present in each well, previously assayed by the BCA technique.

TG1 [8] = assay: immunolabelling of TG1 in ex vivo human skin biopsies; assay type: cell-based; details: cultivated ex vivo skin biopsies, 0.5 ppm topically, 24 hours
Procedure: as §3

TG1 [9] = assay: immunoblot of TG1 in cultured NHKs; assay type: cell-based, human; details: 1% of 50 ppm mother solution, 24 hours
Procedure: as §2

TG2 [10] = assay: immunofluorescence labelling of TG2 in cultured normal human fibroblasts; assay type: cell-based; details: 0.5 ppm, 24 hours
Procedure: as §1, with “Corporation). […]” for “Corporation).”

biopsies of human skin [11] = assay: epidermal differentiation, morphology of skin sections ex vivo; assay type: cell-based; details: 0.5 ppm topically, 24 hours
Procedure: (§4) Biopsies of human skin were placed in culture at the air/liquid interface. A 1% solution of a mother solution containing 50 ppm of peptide SEQ ID NO: 5 was applied topically over 24 hours. The biopsies were then enclosed in paraffin and histological sections 3 μm thick were made. The slides were deparaffined, hydrated, then immunolabelled by an antibody directed against TG1 (Clinisciences BT-621, mouse monoclonal) or cyto-pankeratins (NOVOCASTRA® NCL-CK10 antibody, mouse monoclonal), or loricrin (ABCAM® ab24722 antibody, rabbit polyclonal), or involucrin (NOVOCASTRA® NCL-INV antibody, clone SY5, mouse monoclonal) or filaggrin (Tebu Santa Cruz sc-58761, mouse monoclonal). For easier observation, the rings of the cells can be counter-stained by DAPI (4′,6′ di amidine-2-phenyl indole, a blue fluorescent molecule capable of binding strongly to DNA). A suitable secondary antibody coupled to a fluorescent marker was then used. After mounting in a medium ad hoc, the slides were observed under epifluorescence microscope (ECLIPSE® E 80i microscope by Nikon Corporation).

TG1 [12] = assay: immunolabelling of epidermal differentiation marker TG1; assay type: cell-based, human; details: 0.5 ppm, 24 hours; cultured NHKs and skin biopsies
Description: (§5) The objective of this study was to determine the influence of peptide SEQ ID NO: 5 on epidermal differentiation. To this end, the expression of the main markers of epidermal differentiation, expressed specifically in the keratinocytes in the suprabasal layers, were studied. The tested markers are transglutaminase 1, pankeratins, filaggrin, involucrin and loricrin. On the other hand, filaggrin, involucrin and loricrin are precursors of the cornified envelope and of transglutaminase substrates.
(§6) Cultured NHKs were treated with a 1% solution of a mother solution containing 50 ppm of peptide SEQ ID NO: 5 for 24 hours. The cells were then washed and fixed with 3.7% paraformaldehyde for 10 minutes. After unmasking of specific sites, the cells were incubated in the presence of a specific antibody directed against TG1 (Clinisciences BT-621, mouse monoclonal), or against loricrin (ABCAM® ab24722 antibody, rabbit polyclonal), or involucrin (NOVOCASTRA® NCL-INV antibody, mouse monoclonal, clone SY5), then incubated in the presence of a suitable secondary antibody coupled to a fluorescent marker. For easier observation, the rings of the cells can be counter-stained by DAPI (4′,6′ di amidine-2-phenyl indole), a blue fluorescent molecule capable of binding strongly to DNA). […]

loricrin [13] = assay: immunolabelling of epidermal differentiation marker loricrin; assay type: cell-based, human; details: 0.5 ppm, 24 hours; cultured NHKs and skin biopsies
Description: as §5, §6

TG5 = assay: immunofluorescence labelling of TG5 in cultured normal human keratinocytes; assay type: cell-based; details: 0.5 ppm, 24 hours
Procedure: as §1

involucrin [14] = assay: immunolabelling of epidermal differentiation marker involucrin; assay type: cell-based, human; details: 0.5 ppm, 24 hours; cultured NHKs and skin biopsies
Description: as §5, §6

filaggrin = assay: immunolabelling of epidermal differentiation marker filaggrin; assay type: cell-based, human; details: 0.5 ppm, 24 hours; labelled in skin biopsies
Description: as §5
as §4, with “A suitable secondary antibody coupled to a fluorescent marker was then used. After mounting in a medium ad hoc, the slides were observed under epifluorescence microscope (ECLIPSE® E 80i microscope by Nikon Corporation).” left out

biopsies of human skin [15] = assay: study of epidermal regeneration, histology of skin biopsies; assay type: cell-based; details: 1% of 50 ppm mother solution topically, 24 hours
Procedure: Biopsies of human skin were placed in culture at the air/liquid interface. A 1% solution of a mother solution containing 50 ppm of peptide SEQ ID NO: 5 was applied topically, then the samples were incubated for 24 hours. The skin biopsies were then enclosed in paraffin and histological sections 3 μm thick were made. The sections were deposited on Superfrost Plus slides (Menzel Glaser, Thermo Scientific), then deparaffined in xylene and rehydrated in a series of alcohol-water solutions. The sections were then stained by 50% haematoxylin for 3 minutes, rinsed, then stained with 60% eosin for 3 minutes and rinsed in water. The sections were then dehydrated, mounted in Eukitt and examined by optical microscopy.

pankeratins = assay: immunolabelling of epidermal differentiation marker pankeratins; assay type: cell-based, human; details: 0.5 ppm, 24 hours; labelled in skin biopsies
Description: as §5
as §4, with “A suitable secondary antibody coupled to a fluorescent marker was then used. After mounting in a medium ad hoc, the slides were observed under epifluorescence microscope (ECLIPSE® E 80i microscope by Nikon Corporation).” left out

## SEQ ID NO: 5 (RRGQ)
Human fibroblasts
  dose dependence of the effect on fibroblast invasion: dose-dependent
Human fibroblasts; 0 to 48 hours
  invasion of the acellular zone with fibroblasts compared to control: quicker
TG2 [1]
  expression of TG2 (immunofluorescence): stimulates the expression
TG3 [2]
  expression of TG3 (immunofluorescence): stimulates the expression
Involucrin [3]
  increase in expression of involucrin (quantitative analysis of immunoblots): 30%
Loricrin [4]
  increase in expression of loricrin (quantitative analysis of immunoblots): 16%
TG3 [5]
  expression of TG3 (immunofluorescence): stimulates the expression
TG1 [6]
  expression of TG1 (immunofluorescence): stimulates the expression
TG2 [7]
  expression of TG2 (immunofluorescence): stimulates the expression
transglutaminases; after 24 hours
  increase in total transglutaminase enzyme activity compared to the untreated control: 30%
transglutaminases; after 48 hours
  increase in total transglutaminase enzyme activity compared to the untreated control: 47.7%
TG1 [8]
  expression of TG1 (immunofluorescence): stimulates the expression
TG1 [9]
  increase in expression of TG1 (quantitative analysis of immunoblots): 20%
TG2 [10]
  expression of TG2 (immunofluorescence): stimulates the expression
Biopsies of human skin [11]
  epidermal differentiation, cornified layer morphology: thicker cornified layer
TG1 [12]
  expression of TG1 as differentiation marker (immunofluorescence): stimulates the expression
Loricrin [13]
  expression of loricrin (immunofluorescence): stimulates the expression
TG5
  expression of TG5 (immunofluorescence): stimulates the expression
Involucrin [14]
  expression of involucrin (immunofluorescence): stimulates the expression
filaggrin
  expression of filaggrin (immunofluorescence): stimulates the expression
Biopsies of human skin [15]
  cells of the basal layer in histological sections of epidermis: Greater density of the cells of the basal layer
  cornified layer in histological sections of epidermis: neo-synthesis of the cornified layer, which appears thicker and better hydrated
pankeratins
  expression of pankeratins (immunofluorescence): stimulates the expression
